# From article PMC6421522, “Designing Dual Inhibitors of Anaplastic Lymphoma Kinase (ALK) and Bromodomain-4 (BRD4) by Tuning Kinase Selectivity” (Journal of Medicinal Chemistry, 2019)
# Tested on: HeLa cells
# Assay: Mitotic arrest and mitotic markers in HeLa cells (Western blot)
# Type: cell-based
# Description: Protein extracts of cells were prepared by lysis in radioimmunoprecipitation assay buffer (Sigma) supplemented with protease inhibitors (complete protease inhibitor cocktail, Roche). Protein extracts (25 μg) were separated by sodium dodecyl sulfate-polyacrylamide gel electrophoresis and transferred onto poly(vinylidene difluoride) membranes using the Trans-Blot Turbo transfer system (BioRad). After blocking with 5% bovine serum albumin in PBS with 0.1% Tween-20 for 30 min, the membrane was incubated with primary antibodies for 1 h at room temperature. Horseradish peroxidase-linked secondary antibodies were incubated 30 min at room temperature followed by enhanced chemiluminescence (ECL) detection (ECL Western blot substrate, Pierce).
# Primary antibodies were obtained from the following sources: PLK-1 (05-844) and phosphohistone H3 (Ser10) (05806) from Millipore; pPlk1-T210 (5472) from Cell Signaling; pPlk1-S137 (21738) from Abcam; and cyclin B1 (GNS1) and β-actin (A2228) from Sigma-Aldrich served as loading control.
compound,measurement,setting,value
"CCOc1cc(C2CCN(C)CC2)ccc1Nc1ncc2c(n1)N(Cc1cc(C)cs1)[C@H](CC)C(=O)N2C [16k, (R)-2-((2-Ethoxy-4-(1-methylpiperidin-4-yl)phenyl)amino)-7-ethyl-5-methyl-8-((4-methylthiophen-2-yl)methyl)-7,8-dihydropteridin-6(5H)-one]",concentration up to which no increase in mitotic markers and PLK-1 phosphorylation sites,"HeLa cells, Western blot",> 10 µM
same,selectivity window for ALK^F1174L over PLK-1 in cells,based on the cellular data,10–20 fold
same,expected cellular PLK-1 potency after similar drop-off,extrapolated from BI-2536 drop-off,> 2.5 µM
